Source: paper PMC8896928, “Preparation, Characterization, and Preliminary Imaging Study of [^188Re]Re-Ibandronate as a Novel Theranostic Radiopharmaceutical for Bone Metastasis” (Contrast Media & Molecular Imaging, 2022)

Columns and labels:
fresh human plasma = details: 37°C, 2 h
Text: The results are expressed as mean ± standard deviation ( χ¯ ± s).

[1] = Biodistribution in normal mice; assay type: in vivo, Kunming mice
Procedure: Twenty Kunming mice (originated from Swiss albino mice and introduced into Kunming, China.) were randomly divided into five groups (equal number of males and females). Each group was injected with 3.7 MBq [^188Re]Re-IBA. […] The blood and important tissue and organ samples were collected to measure the radioactivity count by γ counter. Following the time attenuation correction, the percentage injection dose rate per gram of tissue (%ID/g) was calculated at each time point. The result is expressed as mean ± standard deviation ( χ¯ ± s). The in vivo distribution of [^188Re]ReO4^− was studied using the aforementioned method.

[2] = Bone imaging of New Zealand rabbits (SPECT); details: New Zealand rabbit, 100 MBq
Procedure: The New Zealand rabbit was anesthetized by intraperitoneal injection of 2% pentobarbital sodium (40 mg/kg). Then, 100 MBq [^188Re]Re-IBA was injected. Bone imaging was performed at different time points (acquisition equipment: American GE Infinia T4 double probe single-photon emission computed tomography, high energy collimator; scanning parameters: energy peak: 155 keV, posture: supine position, matrix: 128 × 128, and window width: ±10%). Following image acquisition, the images were processed by using the software of the postprocessing workstation.

SMILES: CCCCCN(C)CCC1(O)P(=O)(O)[O][188Re]2([OH])([OH])([O]P1(=O)O)[O]P(=O)(O)C(O)(CCN(C)CCCCC)P(=O)(O)[O]2 (centres unmarked) [[^188Re]Re-IBA]
- PPB (plasma protein binding rate) (fresh human plasma): 79.8 ± 0.71%
- %ID/g Blood ([1]; 1 h): 1.869 ± 0.665 %ID/g
- %ID/g Brain ([1]; 1 h): 0.072 ± 0.023 %ID/g
- %ID/g Femur ([1]; 1 h): 5.989 ± 1.680 %ID/g
- %ID/g Gonad ([1]; 1 h): 0.878 ± 0.426 %ID/g
- %ID/g Heart ([1]; 1 h): 0.488 ± 0.179 %ID/g
- %ID/g Kidney ([1]; 1 h): 5.894 ± 1.648 %ID/g
- %ID/g Liver ([1]; 1 h): 1.100 ± 0.165 %ID/g
- %ID/g Lung ([1]; 1 h): 1.297 ± 0.661 %ID/g
- %ID/g Muscle ([1]; 1 h): 0.550 ± 0.251 %ID/g
- %ID/g Small intestine ([1]; 1 h): 0.898 ± 0.494 %ID/g
- %ID/g Spleen ([1]; 1 h): 0.952 ± 0.336 %ID/g
- %ID/g Stomach ([1]; 1 h): 2.928 ± 0.851 %ID/g
- %ID/g Thyroid gland ([1]; 1 h): 0.594 ± 0.201 %ID/g
- Femur/heart radioactivity ratio ([1]; 1 h): 12.278
- Femur/liver radioactivity ratio ([1]; 1 h): 5.443
- Femur/muscle radioactivity ratio ([1]; 1 h): 10.880
- %ID/g Blood ([1]; 3 h): 0.785 ± 0.220 %ID/g
- %ID/g Brain ([1]; 3 h): 0.056 ± 0.010 %ID/g
- %ID/g Femur ([1]; 3 h): 7.105 ± 1.901 %ID/g
- %ID/g Gonad ([1]; 3 h): 0.611 ± 0.095 %ID/g
- %ID/g Heart ([1]; 3 h): 0.293 ± 0.118 %ID/g
- %ID/g Kidney ([1]; 3 h): 3.140 ± 0.799 %ID/g
- %ID/g Liver ([1]; 3 h): 0.794 ± 0.133 %ID/g
- %ID/g Lung ([1]; 3 h): 0.784 ± 0.196 %ID/g
- %ID/g Muscle ([1]; 3 h): 0.344 ± 0.143 %ID/g
- %ID/g Small intestine ([1]; 3 h): 0.597 ± 0.214 %ID/g
- %ID/g Spleen ([1]; 3 h): 0.475 ± 0.135 %ID/g
- %ID/g Stomach ([1]; 3 h): 2.801 ± 0.560 %ID/g
- %ID/g Thyroid gland ([1]; 3 h): 0.449 ± 0.171 %ID/g
- Femur/heart radioactivity ratio ([1]; 3 h): 24.214
- Femur/liver radioactivity ratio ([1]; 3 h): 8.949
- Femur/muscle radioactivity ratio ([1]; 3 h): 20.664
- %ID/g Blood ([1]; 6 h): 0.496 ± 0.207 %ID/g
- %ID/g Brain ([1]; 6 h): 0.045 ± 0.011 %ID/g
- %ID/g Femur ([1]; 6 h): 7.724 ± 2.292 %ID/g
- %ID/g Gonad ([1]; 6 h): 0.303 ± 0.141 %ID/g
- %ID/g Heart ([1]; 6 h): 0.199 ± 0.049 %ID/g
- %ID/g Kidney ([1]; 6 h): 2.763 ± 0.731 %ID/g
- %ID/g Liver ([1]; 6 h): 0.526 ± 0.087 %ID/g
- %ID/g Lung ([1]; 6 h): 0.506 ± 0.104 %ID/g
- %ID/g Muscle ([1]; 6 h): 0.220 ± 0.124 %ID/g
- %ID/g Small intestine ([1]; 6 h): 0.608 ± 0.192 %ID/g
- %ID/g Spleen ([1]; 6 h): 0.296 ± 0.108 %ID/g
- %ID/g Stomach ([1]; 6 h): 1.741 ± 0.368 %ID/g
- %ID/g Thyroid gland ([1]; 6 h): 0.399 ± 0.082 %ID/g
- Femur/heart radioactivity ratio ([1]; 6 h): 38.835
- Femur/liver radioactivity ratio ([1]; 6 h): 14.694
- Femur/muscle radioactivity ratio ([1]; 6 h): 35.182
- %ID/g Blood ([1]; 24 h): 0.058 ± 0.013 %ID/g
- %ID/g Brain ([1]; 24 h): 0.024 ± 0.013 %ID/g
- %ID/g Femur ([1]; 24 h): 6.177 ± 2.163 %ID/g
- %ID/g Gonad ([1]; 24 h): 0.059 ± 0.032 %ID/g
- %ID/g Heart ([1]; 24 h): 0.045 ± 0.012 %ID/g
- %ID/g Kidney ([1]; 24 h): 0.913 ± 0.173 %ID/g
- %ID/g Liver ([1]; 24 h): 0.122 ± 0.042 %ID/g
- %ID/g Lung ([1]; 24 h): 0.138 ± 0.037 %ID/g
- %ID/g Muscle ([1]; 24 h): 0.051 ± 0.020 %ID/g
- %ID/g Small intestine ([1]; 24 h): 0.078 ± 0.013 %ID/g
- %ID/g Spleen ([1]; 24 h): 0.189 ± 0.052 %ID/g
- %ID/g Stomach ([1]; 24 h): 0.098 ± 0.036 %ID/g
- %ID/g Thyroid gland ([1]; 24 h): 0.115 ± 0.036 %ID/g
- Femur/heart radioactivity ratio ([1]; 24 h): 137.083
- Femur/liver radioactivity ratio ([1]; 24 h): 50.645
- Femur/muscle radioactivity ratio ([1]; 24 h): 121.910
- %ID/g Blood ([1]; 48 h): 0.031 ± 0.009 %ID/g
- %ID/g Brain ([1]; 48 h): 0.009 ± 0.002 %ID/g
- %ID/g Femur ([1]; 48 h): 5.239 ± 2.029 %ID/g
- %ID/g Gonad ([1]; 48 h): 0.029 ± 0.009 %ID/g
- %ID/g Heart ([1]; 48 h): 0.019 ± 0.010 %ID/g
- %ID/g Kidney ([1]; 48 h): 0.399 ± 0.153 %ID/g
- %ID/g Liver ([1]; 48 h): 0.038 ± 0.020 %ID/g
- %ID/g Lung ([1]; 48 h): 0.040 ± 0.020 %ID/g
- %ID/g Muscle ([1]; 48 h): 0.016 ± 0.005 %ID/g
- %ID/g Small intestine ([1]; 48 h): 0.033 ± 0.010 %ID/g
- %ID/g Spleen ([1]; 48 h): 0.046 ± 0.009 %ID/g
- %ID/g Stomach ([1]; 48 h): 0.047 ± 0.019 %ID/g
- %ID/g Thyroid gland ([1]; 48 h): 0.070 ± 0.019 %ID/g
- Femur/heart radioactivity ratio ([1]; 48 h): 270.814
- Femur/liver radioactivity ratio ([1]; 48 h): 136.914
- Femur/muscle radioactivity ratio ([1]; 48 h): 325.483
- Elimination route of most of the activity [2]: through the kidneys
- Bone imaging, tracer distribution ([2]; 20 min after the injection): obvious accumulation in bones and mild tracer uptake in soft tissue
